Key:
[1] = system: male Lewis rats; assay: Carrageenan Pleurisy Assay; type: in vivo; details: carrageenan 0.075 mg/rat, harvested four hours after carrageenan; for % Inhibition Cells: inflammatory cells (neutrophils) in pleural exudate vs vehicle control; for % Inhibition Exudate: pleural edema (exudate) vs vehicle control
Method: 2) Carrageenan Pleurisy Assay
The antiinflammatory activity of compounds of the invention was determined by the procedure of Vinegar, R, et al., Proc. Soc. Exp. Biol. Med., 1981, 168, 24-32, using male Lewis rats of 150±20 grams. The carrageenan dose was 0.075 mg/rat. Pleural exudate was harvested four hours after injection of carrageenan. Acute antiinflammatory activity was determined by inhibition of pleural edema and inflammatory cells (neutrophils) from a negative (vehicle) control group.

[2] = system: cytokine-stimulated human umbilical vein endothelial cells; assay: Cell Adhesion Assay: adherence of fluorescently-labelled leukocytes to endothelial cell monolayers; type: cell-based; details: inhibition of cytokine-stimulated adhesion minus basal adhesion; calcein-AM labelled leukocytes on HUVEC monolayers
In short: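 HUVEC monolayers were stimulated with cytokine, and adhesion of calcein-AM-labelled leukocytes was quantified by fluorescence. Inhibition was calculated on cytokine-stimulated adhesion after subtracting basal adhesion of unstimulated cells.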

SMILES | melting point [°C] | IC50 [2] [nM] | % Inhibition Cells [1] [%] | % Inhibition Exudate [1] [%]
O=C(O)/C=C/c1ccc(-c2nc3c(=O)n(CC4CC5CCC4C5)c(=O)n(CC4CC5CCC4C5)c3[nH]2)cc1 (centres unmarked) [Example 12, (E)-4-(1,3-bis(bicyclo(2.2.1)hept-2-ylmethyl)-1,2,3,6-tetrahydro-2,6-dioxo-9H-purin-8-yl)cinnamic Acid] | > 250 | – | – | –
O=C(O)/C=C/c1ccc(-c2nc3c(=O)n(Cc4ccccc4)c(=S)n(Cc4ccccc4)c3[nH]2)cc1 [Example 17, (E)-4-(1,3-bis(benzyl)-1,2,3,6-tetrahydro-2-thioxo-6-oxo-9H-purin-8-yl)cinnamic Acid] | > 350 | – | – | –
O=C(O)/C=C/c1ccc(-c2nc3c(=O)n(Cc4cccc(F)c4)c(=O)n(Cc4cccc(F)c4)c3[nH]2)cc1 [Example 20, (E)-4-(1,3-bis(3-fluorobenzyl)-1,2,3,6-tetrahydro-2,6-dioxo-9H-purin-8-yl)cinnamic Acid] | > 300 | – | – | –
O=C(O)/C=C/c1ccc(-c2nc3c(=O)n(Cc4ccccc4F)c(=O)n(Cc4ccccc4F)c3[nH]2)cc1 [Example 21, (E)-4-(1,3-bis(2-fluorobenzyl)-1,2,3,6-tetrahydro-2,6-dioxo-9H-purin-8-yl)cinnamic Acid] | > 350 | – | – | –
O=C(O)/C=C/c1ccc(-c2nc3c(=O)n(CCc4ccccc4)c(=O)n(CCc4ccccc4)c3[nH]2)cc1 [Example 22, (E)-4-(1,3-bis(2-phenylethyl)-1,2,3,6-tetrahydro-2,6-dioxo-9H-purin-8-yl)cinnamic Acid] | > 350 | – | – | –
COCCOCCOCCOCCOCCOCCOCCOCCOCCN(C)C(=O)/C=C/c1ccc(-c2nc3c(=O)n(CC4CCCCC4)c(=O)n(CC4CCCCC4)c3[nH]2)cc1 [Example 68, (E)-4-(1,3-Bis(cyclohexylmethyl)-1,2,3,6-tetrahydro-2,6-dioxo-9H-purin-8-yl) cinnamic Acid N-methyl Nonaethylene Glycol Methyl Ether Amide] | – | 72 ± 19 | 92 | 80
COCCOCCOCCOCCOCCOCCOCCOCCOCCOC(=O)/C=C/c1ccc(-c2nc3c(c(=O)n(CC4CCCCC4)c(=O)n3CC3CCCCC3)n2C)cc1 [Example 79, (E)-4-(1,3-Bis(cyclohexylmethyl)-2,3,6,7-tetrahydro-2,6-dioxo-7-methyl-1H-purin-8-yl)cinnamic Acid Nonaethylene Glycol Methyl Ether Ester] | – | 3 ± 1 | 55 | 7

The next lines start with results.

melting point [°C] | IC50 [2] [nM] | SMILES | % Inhibition Cells [1] [%] | % Inhibition Exudate [1] [%]
– | < 0.1 | COCCOCCOCCOCCOCCOCCOCCOCCOCCOC(=O)/C=C/c1ccc(-c2nc3c(=O)n(Cc4ccccc4)c(=O)n(Cc4ccccc4)c3[nH]2)cc1 [Example 34] | 20 | 59
– | 11 ± 8 | COCCOCCOCCOCCOCCOCCOCCOCCOCCOC(=O)/C=C/c1ccc(-c2nc3c(=O)n(CC4CCCC4)c(=O)n(CC4CCCC4)c3[nH]2)cc1 [Example 36, (E)-4-(1,3-bis(cyclopentylmethyl)-1,2,3,6-tetrahydro-2,6-dioxo-9H-purin-8-yl)cinnamic Acid Nonaethylene Glycol Methyl Ether Ester] | 47 | 38
– | 20 ± 10 | CCCn1c(=O)c2nc(-c3ccc(/C=C/C(=O)OCCOCCOCCOCCOCCOCCOCCOCCOCCOC)cc3)[nH]c2n(CC2CCCCC2)c1=O [Example 44, (E)-4-((1-propyl-3-cyclohexylmethyl)-1,2,3,6-tetrahydro-2,6-dioxo-9H-purin-8-yl)cinnamic Acid Nonaethylene Glycol Methyl Ether Ester] | 44 | 24
– | 13 ± 9 | CCCn1c(=O)n(CC2CCCCC2)c(=O)c2nc(-c3ccc(/C=C/C(=O)OCCOCCOCCOCCOCCOCCOCCOCCOCCOC)cc3)[nH]c21 [Example 49, (E)-4-((1-cyclohexylmethyl-3-propyl)-1,2,3,6-tetrahydro-2,6-dioxo-9H-purin-8-yl)cinnamic Acid Nonaethylene Glycol Methyl Ether Ester] | 28 | 53
– | > 1000 | CCCn1c(=O)c2nc(-c3ccc(/C=C/C(=O)NCCOCCOCCOCCOCCOCCOCCOCCOCCOC)cc3)[nH]c2n(CC2CCCCC2)c1=O [Example 73, (E)-4-((1-propyl-3-cyclohexylmethyl)-1,2,3,6-tetrahydro-2,6-dioxo-9H-purin-8-yl)cinnamic Acid Nonaethylene Glycol Methyl Ether Amide] | 0 | 0
– | 360 ± 160 | CCCn1c(=O)n(CC2CCCCC2)c(=O)c2nc(-c3ccc(/C=C/C(=O)NCCOCCOCCOCCOCCOCCOCCOCCOCCOC)cc3)[nH]c21 [Example 74, (E)-4-((1-cyclohexylmethyl-3-propyl)-1,2,3,6-tetrahydro-2,6-dioxo-9H-purin-8-yl)cinnamic Acid Nonaethylene Glycol Methyl Ether Amide] | 85 | 70
